Measured values reported in paper PMC9496553, “The Dual-Targeted Peptide Conjugated Probe for Depicting Residual Nasopharyngeal Carcinoma and Guiding Surgery” (Biosensors, 2022).
No end group written: not given here.

Experiments:
Type in all cases: in vivo, BALB/c nude mice
5-8F tumours [1] = experiment: Biodistribution and tumour selectivity by whole-body fluorescence imaging, subcutaneous tumour model; details: for maximum TBR (tumour-to-background ratio): i.v. 12 μM, tumour region vs ipsilateral auricle
Procedure: (§1) Animal experiments were performed in accordance with the approval of Animal Welfare and Ethics Committee of Jinan University (approval number: IACUC-20211210-03). Four-week-old BALB/c nude mice were purchased from the Beijing Vital River Laboratory Animal Technology Co., Ltd. (Beijing, China). Subcutaneous tumour models received a subcutaneous injection of 5-8F (5.0 × 10^6 in 200 μL PBS) in the lower right flank. Experiments were started 10–14 days after tumour implantation, when the tumour diameter was 6–8 mm. Tumour volumes were measured using a Vernier calliper and calculated using the formula for a hemiellipsoid (volume = 0.5236 × length × width^2), as this form best approximated the tumour shape. For orthotopic tumour models, mice were anaesthetised using isoflurane with a precision vaporiser at 1% and injected with 25 μL of 1.1 × 10^5 5-8F-fLuc cells into the nasopharynx using a 28-gauge needle, as previously reported. Mice were fed a specific pathogen-free unit, and animal surgery was performed in a sterile hood. Orthotopic tumours were visualised and tracked by bioluminescence imaging (BLI) using an IVIS® Spectrum In Vivo Imaging System (PerkinElmer, Waltham, MA, USA). Specifically, mice received an intraperitoneal injection of 3 mg/mL luciferin bioluminescent substrate (Perkin Elmer, Waltham, MA, USA) 4 min before imaging.
Mice with subcutaneous 5-8F tumours were randomly divided into three groups (n = 3 per group). The three groups received intravenous (i.v.) injection with 12 μM FY-35 (dual-target dye), 12 μM FL-35 (single-target dye), and equimolar quantities of free dye, respectively. Fluorescence images were acquired pre-, 2 h, 6 h, 10 h, and 24 h post-injection. The mice in each group were euthanised. The heart, lung, liver, pancreas, spleen, kidney, intestine, and tumour tissues were collected for ex vivo imaging. The MFI was analysed to determine organ biodistribution and tumour selectivity in the three groups. The TBR was calculated by drawing regions of interest within the tumour region and ipsilateral auricle of each mouse.

5-8F tumours [2] = experiment: Minimal size of detectable subcutaneous tumours by fluorescence imaging; details: 12 μM, n = 8
Procedure: as §1, with “Mice were fed a specific pathogen-free unit, and animal surgery was performed in a sterile hood. Orthotopic tumours were visualised and tracked by bioluminescence imaging (BLI) using an IVIS® Spectrum In Vivo Imaging System (PerkinElmer, Waltham, MA, USA). Specifically, mice received an intraperitoneal injection of 3 mg/mL luciferin bioluminescent substrate (Perkin Elmer, Waltham, MA, USA) 4 min before imaging.” left out
(§2) To identify the minimal size of detectable tumours, subcutaneous tumours of different sizes (1–7 mm; n = 8) were injected with 12 μM FY-35, and imaged at 24 h post-injection to measure MFI in the tumour region. […] Serial sections were cut at a thickness of 10 μm for fluorescence imaging using an inverted microscope (Leica, Wetzlar, Germany), and 4 μm for haematoxylin–eosin (H&E) staining.

[3] = system: 5-8F-fLuc orthotopic tumours; experiment: Fluorescence imaging of orthotopic nasopharyngeal tumours; details: orthotopic model, n = 5, i.v. 12 μM, imaged up to 48 h post-injection
Procedure: as §1, with “Mice were fed a specific pathogen-free unit, and animal surgery was performed in a sterile hood. Orthotopic tumours were visualised and tracked by bioluminescence imaging (BLI) using an IVIS® Spectrum In Vivo Imaging System (PerkinElmer, Waltham, MA, USA). Specifically, mice received an intraperitoneal injection of 3 mg/mL luciferin bioluminescent substrate (Perkin Elmer, Waltham, MA, USA) 4 min before imaging.” left out
as §2

| Substance | contrast improved compared to single-targeted tracer (IR800-FL-35) (5-8F tumours [1]; at 24 h post-injection) | maximum TBR (tumour-to-background ratio) (5-8F tumours [1]; subcutaneous 5-8F tumours) | maximum TBR, fold higher than that of IR800-FL-35 (5-8F tumours [1]; subcutaneous 5-8F tumours) | tumour volume at which the MFI increased remarkably (5-8F tumours [2]; 24 h post-injection) | minimum size of detectable tumours (5-8F tumours [2]; imaged 24 h post-injection, subcutaneous tumours 1–7 mm) | retention of optical contrast in the tumour region [3] |
| --- | --- | --- | --- | --- | --- | --- |
| IR800-FY-35: bispecific peptide FY-35 labelled with IRDye 800CW (FAEKFKEAVKDYFAKFWDGSGLTVSPWYLTVSPWY; also: IRDye 800CW label, site not given here) | 2.3 fold | 13.83 | 2.3 fold | 32 mm^3 | 3.9 mm | 48 h |
| IR800-FL-35: single-targeted peptide FL-35 labelled with IRDye 800CW (FAEKFKEAVKDYFAKFWDGSGSYTYSTPVWVPLWL; also: IRDye 800CW label, site not given here) |  | 5.99 |  |  |  |  |
